Data: US20250160350A1, “BIOACTIVE MOLECULES IN YOGURT” (Phytoquest Limited, priority 2022, published 2025)
Counter-ions that a name gives are not always drawn. Like-named read-outs stand apart in the source and are kept apart here. Blank lines part the entries; values can stand above or below the compound they belong to.

Assays:
GCase [1] = conditions: in vitro and in mice, tissue-specific (Sun et al. 2012); cited from earlier work
[2] = target: T1, human recombinant β-glucocerebrosidase (Cerezyme) (Homo sapiens, UniProt P04062, R534H); assay: β-glucocerebrosidase assay (Cerezyme/imiglucerase, PNP β-glucopyranoside, pH 5.9); assay type: biochemical; conditions: for % inhibition Cerezyme (β-glucocerebrosidase) / inhibition at 5000 µg/mL: Conc 5 mg/ml; for inhibition at 10000 µg/mL: Conc 10 mg/ml; for % inhibition glucocerebrosidase (GC) Genzyme: 0.8 mM; for effect on β-glucocerebrosidase activity, in words: in vitro
T1 construct: purchased Genzyme, Europe
T1 sequence (P04062 40-536 R534H): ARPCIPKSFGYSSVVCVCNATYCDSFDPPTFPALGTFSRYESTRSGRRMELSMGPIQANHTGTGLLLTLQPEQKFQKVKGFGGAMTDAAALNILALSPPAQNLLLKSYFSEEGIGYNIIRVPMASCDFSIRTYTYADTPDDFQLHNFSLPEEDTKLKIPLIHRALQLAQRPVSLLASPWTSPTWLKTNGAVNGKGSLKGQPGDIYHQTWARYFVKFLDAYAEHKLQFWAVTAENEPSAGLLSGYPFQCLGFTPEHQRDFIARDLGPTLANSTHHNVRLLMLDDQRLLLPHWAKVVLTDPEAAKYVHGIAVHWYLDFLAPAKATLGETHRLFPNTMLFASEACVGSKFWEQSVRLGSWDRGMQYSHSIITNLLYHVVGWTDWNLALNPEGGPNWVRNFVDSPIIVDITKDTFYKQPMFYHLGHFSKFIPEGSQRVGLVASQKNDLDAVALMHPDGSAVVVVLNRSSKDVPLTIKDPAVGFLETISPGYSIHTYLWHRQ
Experimental: An exemplary assay is-uses human recombinant imiglucerase (obtained from Genzyme, Europe) and is conducted at 27° C. in 0.1 M citric acid/0.2 M disodium hydrogen phosphate buffer at pH 5.9. The incubation mixture consists of 10 μL of enzyme solution, 10 μL of aqueous solution of test material (e.g., yogurt, yogurt extract or isolated cyclic guanidine compound) at the required concentration and 50 μL of 5 mM para-nitrophenyl (PNP) B glucopyranoside (Sigma-Aldrich) made up in buffer at pH 5.9. The reactions are stopped by addition of 70 μL 0.4 M glycine (pH 10.4) during the exponential phase of the reaction, which is previously determined using uninhibited assays in which water replaces inhibitor. Final absorbances were read at 405 nm using a Versamax microplate reader (Molecular Devices). Assays are carried out in triplicate, and the values given are means of the three replicates per assay. A negative value indicates enzyme activation.
Glycosidase assays. Most enzymes and para-nitrophenyl substrates were purchased from Sigma with the exception of human recombinant β-glucocerebrosidase (Cerezyme) obtained from Genzyme, Europe. Pure iminosugars which inhibit β-glucosidases (DMDP and calystegine B2) were used as controls. Yogurt samples were tested at 1 mg/ml. Enzymes were assayed at 27° C. in 0.1 M citric acid/0.2 M disodium hydrogen phosphate buffers at the optimum pH for the enzyme (pH 5.9 for Cerezyme). The incubation mixture consisted of 10 μL enzyme solution, 10 μL of 1 mg/mL aqueous inhibitor solution and 50 μL of the appropriate 5 mM para-nitrophenyl substrate made up in buffer at the optimum pH for the enzyme. Cerezyme was assayed against para-nitrophenyl (PNP) β-glucopyranoside. […] Final absorbances were read at 405 nm using a Versamax microplate reader (Molecular Devices). Assays were performed in triplicate and the mean percentage inhibitions used. A negative value indicates enzyme activation.
Glycosidase Assays. β-glucocerebrosidase enzyme (Human recombinant imiglucerase, obtained from Genzyme, Europe) were carried at 27° C. in 0.1 M citric acid/0.2 M disodium hydrogen phosphate buffer at pH 5.9. The incubation mixture consisted of 10 μL of enzyme solution, 10 μL of aqueous solution of extract or compound at the required concentration and 50 μL of 5 mM para-nitrophenyl (PNP) β-glucopyranoside (Sigma-Aldrich) made up in buffer at pH 5.9. […] Final absorbances were read at 405 nm using a Versamax microplate reader (Molecular Devices). Assays were carried out in triplicate and the values given are means. Results are shown as % inhibition where a negative value indicates enzyme activation.
β-glucocerebrosidase enzyme (Human recombinant imiglucerase, obtained from Genzyme, Europe) were carried at 27° C. in 0.1 M citric acid/0.2 M disodium hydrogen phosphate buffer at pH 5.9. […] Final absorbances were read at 405 nm using a Versamax microplate reader (Molecular Devices). Assays were carried out in triplicate, and the values given are means of the three replicates per assay. A negative value indicates enzyme activation.

[3] = tested on: N-acetyl-β-D gluc Bovine kidney; assay: Glycosidase assay, N-acetyl-β-D gluc Bovine kidney; assay type: biochemical; conditions: negative value = activation; for % inhibition N-acetyl-β-D gluc Bovine kidney: 0.8 mM
Experimental: (§1) Glycosidase assays. Most enzymes and para-nitrophenyl substrates were purchased from Sigma with the exception of human recombinant β-glucocerebrosidase (Cerezyme) obtained from Genzyme, Europe. Pure iminosugars which inhibit β-glucosidases (DMDP and calystegine B2) were used as controls. Yogurt samples were tested at 1 mg/ml. Enzymes were assayed at 27° C. in 0.1 M citric acid/0.2 M disodium hydrogen phosphate buffers at the optimum pH for the enzyme (pH 5.9 for Cerezyme). The incubation mixture consisted of 10 μL enzyme solution, 10 μL of 1 mg/mL aqueous inhibitor solution and 50 μL of the appropriate 5 mM para-nitrophenyl substrate made up in buffer at the optimum pH for the enzyme. Cerezyme was assayed against para-nitrophenyl (PNP) β-glucopyranoside. The reactions were stopped by addition of 70 μL 0.4 M glycine (pH 10.4) during the exponential phase of the reaction, which had been determined at the beginning using uninhibited assays in which water replaced inhibitor. Final absorbances were read at 405 nm using a Versamax microplate reader (Molecular Devices). Assays were performed in triplicate and the mean percentage inhibitions used. A negative value indicates enzyme activation.

β-D-glucosidase almond = assay: Glycosidase assay, β-D-glucosidase almond; assay type: biochemical; conditions: negative value = activation
Experimental: as §1

[4] = target: T2, α-D-galactosidase Green coffee (Coffea arabica, UniProt Q42656); assay: Glycosidase assay, α-D-galactosidase Green coffee; assay type: biochemical; conditions: 0.8 mM; negative value = activation
T2 construct: purchased Sigma
Experimental: as §1

[5] = target: T3, α-D-mannosidase Jack bean (Canavalia ensiformis, UniProt C0HJB3); assay: Glycosidase assay, α-D-mannosidase Jack bean; assay type: biochemical; conditions: 0.8 mM; negative value = activation
T3 construct: purchased Sigma
T3 sequence (C0HJB3 1-981): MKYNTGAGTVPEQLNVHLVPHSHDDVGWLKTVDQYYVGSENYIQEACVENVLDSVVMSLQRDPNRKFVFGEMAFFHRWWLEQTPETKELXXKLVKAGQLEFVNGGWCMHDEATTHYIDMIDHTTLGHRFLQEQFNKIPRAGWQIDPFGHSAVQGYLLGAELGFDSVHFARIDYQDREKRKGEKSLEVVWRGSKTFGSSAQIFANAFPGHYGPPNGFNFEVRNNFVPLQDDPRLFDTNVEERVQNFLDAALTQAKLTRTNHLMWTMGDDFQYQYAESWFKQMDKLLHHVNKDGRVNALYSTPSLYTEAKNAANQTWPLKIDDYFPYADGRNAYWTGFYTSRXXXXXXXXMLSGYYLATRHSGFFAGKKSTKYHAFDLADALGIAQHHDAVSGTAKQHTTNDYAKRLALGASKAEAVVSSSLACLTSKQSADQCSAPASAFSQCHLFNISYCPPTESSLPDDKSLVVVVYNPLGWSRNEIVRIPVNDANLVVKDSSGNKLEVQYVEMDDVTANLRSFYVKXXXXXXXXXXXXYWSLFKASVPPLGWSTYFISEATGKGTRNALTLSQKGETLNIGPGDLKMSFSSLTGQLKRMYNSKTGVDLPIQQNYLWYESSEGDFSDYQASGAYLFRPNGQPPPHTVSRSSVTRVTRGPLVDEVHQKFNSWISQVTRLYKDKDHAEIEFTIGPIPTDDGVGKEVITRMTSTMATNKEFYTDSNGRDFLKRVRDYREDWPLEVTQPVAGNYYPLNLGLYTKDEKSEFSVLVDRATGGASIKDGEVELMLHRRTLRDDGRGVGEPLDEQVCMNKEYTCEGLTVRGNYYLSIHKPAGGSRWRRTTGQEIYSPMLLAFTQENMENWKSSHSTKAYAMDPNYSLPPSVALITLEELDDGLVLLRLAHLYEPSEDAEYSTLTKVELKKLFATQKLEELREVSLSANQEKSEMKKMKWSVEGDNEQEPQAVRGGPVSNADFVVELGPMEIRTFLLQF
Experimental: as §1

β-D-mannosidase C. fimi = assay: Glycosidase assay, β-D-mannosidase C. fimi; assay type: biochemical; conditions: 0.8 mM; negative value = activation
Experimental: as §1

[6] = tested on: α-D-glucosidase rat intestine; assay: Glycosidase assay, α-D-glucosidase rat intestine; assay type: biochemical; conditions: 0.8 mM; negative value = activation
Experimental: as §1

[7] = tested on: N-acetyl-β-D-gluc Jack bean; assay: Glycosidase assay, N-acetyl-β-D-gluc Jack bean; assay type: biochemical; conditions: 0.8 mM; negative value = activation
Experimental: as §1

[8] = tested on: β-D-galactosidase bovine liver; assay: Glycosidase assay, β-D-galactosidase bovine liver; assay type: biochemical; conditions: 0.8 mM; negative value = activation
Experimental: as §1

α-D-glucosidase Bacillus = assay: Glycosidase assay, α-D-glucosidase Bacillus; assay type: biochemical; conditions: 0.8 mM; negative value = activation
Experimental: as §1

α-D-glucosidase Yeast = assay: Glycosidase assay, α-D-glucosidase Yeast; assay type: biochemical; conditions: negative value = activation
Experimental: as §1

GCase [9] = conditions: PD patients with and without GBA1 mutation; cited from earlier work
GCase [10] = conditions: literature (Ambrosi et al. 2015); cited from earlier work
[11] = pH 5.9, negative value = activation

T2 sequence (Q42656 16-378): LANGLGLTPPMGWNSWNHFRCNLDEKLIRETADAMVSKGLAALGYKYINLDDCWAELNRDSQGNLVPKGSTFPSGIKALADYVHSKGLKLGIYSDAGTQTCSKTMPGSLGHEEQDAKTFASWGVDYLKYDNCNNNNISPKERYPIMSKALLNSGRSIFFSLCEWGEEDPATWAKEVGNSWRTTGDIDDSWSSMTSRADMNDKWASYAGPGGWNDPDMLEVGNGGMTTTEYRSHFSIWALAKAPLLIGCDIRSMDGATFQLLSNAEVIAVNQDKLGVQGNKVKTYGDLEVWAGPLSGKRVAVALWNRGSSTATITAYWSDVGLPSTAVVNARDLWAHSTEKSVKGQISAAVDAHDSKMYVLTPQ

SMILES: OC[C@H]1CNC[C@@H](O)[C@@H]1O [isofagomine]
GCase activity (GCase [1]): increase GCase activity in vitro and in mice

SMILES: O=C(O)c1ccc(=O)[nH]c1 [6-OH-nicotinic acid]
% inhibition Cerezyme (β-glucocerebrosidase) [2, 11]: −1.4%

SMILES: O[C@@H]1[C@@H](O)[C@H](O)[C@]2(O)CC[C@H]1N2 [Calystegine B2]
% inhibition N-acetyl-β-D gluc Bovine kidney [3]: 0%
% inhibition glucocerebrosidase (GC) Genzyme [2, 11]: 100%
% inhibition β-D-glucosidase almond (β-D-glucosidase almond; 0.8 mM): 96%
% inhibition α-D-galactosidase Green coffee [4]: 99%
% inhibition α-D-mannosidase Jack bean [5]: 8%
% inhibition β-D-mannosidase C. fimi (β-D-mannosidase C. fimi): −5%
% inhibition α-D-glucosidase rat intestine [6]: 22%
% inhibition N-acetyl-β-D-gluc Jack bean [7]: 0%
% inhibition β-D-galactosidase bovine liver [8]: 44%
% inhibition α-D-glucosidase Bacillus (α-D-glucosidase Bacillus): −5%
% inhibition α-D-glucosidase Yeast (α-D-glucosidase Yeast; 0.8 mM): 18%

SMILES: CN1C(=N)NC[C@H]1C(=O)O [Compound 1, (S)-2-imino-3-methylimidazolidine-4-carboxylic acid]
% inhibition N-acetyl-β-D-gluc Bovine kidney ([3]; 8 mM): 34%
effect on β-glucocerebrosidase activity, in words [2]: strong promotion equalling that of the yogurt purified compound
effect on β-glucocerebrosidase activity, in words ([2]; listed as (S)-2-imino-3-methylimidazolidine-4-carboxylic acid): effective at promoting the enzyme activity in vitro
% inhibition β-D-glucosidase almond (β-D-glucosidase almond; 8 mM): 20%
% inhibition α-D-glucosidase Yeast (α-D-glucosidase Yeast; 8 mM): 44%

SMILES: Nc1c(Br)cc(Br)cc1CN[C@H]1CC[C@H](O)CC1 [Ambroxol hydrochloride]
GCase activity in patients (GCase [9]): increased the GCase activity
GCase activity (GCase [10]): enhance GCase activity
α-syn clearance (GCase [10]): increase α-syn clearance

SMILES: OC[C@H]1N[C@H](CO)[C@@H](O)[C@@H]1O [DMDP]
% inhibition N-acetyl-β-D gluc Bovine kidney [3]: −7%
% inhibition glucocerebrosidase (GC) Genzyme [2, 11]: 44%
% inhibition β-D-glucosidase almond (β-D-glucosidase almond; 0.8 mM): 97%
% inhibition α-D-galactosidase Green coffee [4]: 7%
% inhibition α-D-mannosidase Jack bean [5]: 3%
% inhibition β-D-mannosidase C. fimi (β-D-mannosidase C. fimi): 93%
% inhibition α-D-glucosidase rat intestine [6]: 77%
% inhibition N-acetyl-β-D-gluc Jack bean [7]: −7%
% inhibition β-D-galactosidase bovine liver [8]: 99%
% inhibition α-D-glucosidase Bacillus (α-D-glucosidase Bacillus): 93%
% inhibition α-D-glucosidase Yeast (α-D-glucosidase Yeast; 0.8 mM): 100%

SMILES: Cn1cc(C(=O)O)ccc1=O [6-OH-trigonelline]
% inhibition Cerezyme (β-glucocerebrosidase) [2, 11]: 8.6%

SMILES: O=c1c(O)c(-c2ccc(O)c(O)c2)oc2cc(O)cc(O)c12 [quercetin]
inhibition at 5000 µg/mL [2, 11]: 39.4%
effect on β-glucocerebrosidase activity, in words [2]: inhibited the enzyme

More lines, main results first:

inhibition at 10000 µg/mL [2, 11]: 0.1%
SMILES: C[N+](C)(C)CC(=O)O [betaine]

inhibition at 10000 µg/mL [2, 11]: -1.6%
SMILES: Nc1cc[nH]c(=O)n1 [cytosine]

inhibition at 1000 µg/mL ([2]; Conc 1 mg/ml, pH 5.9, negative value = activation): 3.1%
inhibition at 5000 µg/mL [2, 11]: -12.6%
SMILES: C[n+]1cccc(C(=O)[O-])c1 [trigonelline]

inhibition at 5000 µg/mL [2, 11]: -12.7%
SMILES: O=C(O)c1cccnc1 [nicotinic acid]

inhibition at 5000 µg/mL [2, 11]: -1.8%
SMILES: O=C(O)/C=C/c1ccc(O)c(O)c1 [caffeic acid]

inhibition at 5000 µg/mL [2, 11]: -11.3%
SMILES: NC(=O)c1cccnc1 [nicotinamide]

inhibition at 5000 µg/mL [2, 11]: 57.1%
effect on β-glucocerebrosidase activity, in words [2]: inhibited the enzyme
SMILES: O=C(/C=C/c1ccc(O)c(O)c1)O[C@@H]1C[C@](O)(C(=O)O)C[C@@H](O)[C@H]1O [chlorogenic acid]

inhibition at 5000 µg/mL [2, 11]: 4.5%
SMILES: O=c1cc[nH]c(=O)[nH]1 [uracil]

inhibition at 10000 µg/mL [2, 11]: -22%
SMILES: Nc1ncnc2nc[nH]c12 [adenine]
effect on β-glucocerebrosidase activity, in words [2]: some promotion activity but weaker than that seen with the yogurts
